Assay results as given in PubChem BioAssay AID248 (DTP/NCI, 2004).
Inconclusive results and toxic doses are left out. Rule as the data show it: active = T/C of 150% or more; inactive = T/C below 125%.

System: L1210 leukemia ip in BDF1 mice, survival T/C
Assay: NCI In Vivo Anticancer Drug Screen. Data for tumor model L1210 Leukemia (intraperitoneal) in B6D2F1 (BDF1) mice
Conditions: endpoint: mean survival time, higher = longer survival
How it was run: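 Tumor cells were implanted, animals were treated, and survival was followed. The result divides the treated measurement by the vehicle-control measurement.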

[1] = dose: 50.0 mg/kg/injection, schedule: Q01DX001 (ip), vehicle: saline
[2] = dose: 100.0 mg/kg/injection, schedule: Q01DX001 (ip), vehicle: saline
[3] = dose: 100.0 mg/kg/injection, schedule: Q04DX003 (ip), vehicle: saline
[4] = dose: 200.0 mg/kg/injection, schedule: Q01DX001 (ip), vehicle: saline
[5] = dose: 200.0 mg/kg/injection, schedule: Q04DX003 (ip), vehicle: saline
[6] = dose: 100.0 mg/kg/injection, schedule: Q01DX009 (ip), vehicle: saline
[7] = dose: 200.0 mg/kg/injection, schedule: Q01DX009 (ip), vehicle: saline
[8] = dose: 400.0 mg/kg/injection, schedule: Q01DX009 (ip), vehicle: saline
[9] = dose: 75.0 mg/kg/injection, schedule: Q01DX001 (ip), vehicle: other
[10] = dose: 100.0 mg/kg/injection, schedule: Q04DX003 (ip), vehicle: Klucel (hydroxypropylcellulose) (HPC)
[11] = dose: 200.0 mg/kg/injection, schedule: Q04DX003 (ip), vehicle: Klucel (hydroxypropylcellulose) (HPC)
[12] = dose: 400.0 mg/kg/injection, schedule: Q04DX003 (ip), vehicle: Klucel (hydroxypropylcellulose) (HPC)
[13] = dose: 75.0 mg/kg/injection, schedule: Q01DX001 (ip), vehicle: saline
[14] = dose: 150.0 mg/kg/injection, schedule: Q01DX001 (ip), vehicle: saline
[15] = dose: 100.0 mg/kg/injection, schedule: Q01DX009 (ip), vehicle: Klucel (hydroxypropylcellulose) (HPC)
[16] = dose: 200.0 mg/kg/injection, schedule: Q01DX009 (ip), vehicle: Klucel (hydroxypropylcellulose) (HPC)
[17] = dose: 400.0 mg/kg/injection, schedule: Q01DX009 (ip), vehicle: Klucel (hydroxypropylcellulose) (HPC)

Measured: T/C

CCC(C(=O)OC)C1CCN(C)C(=O)C12CO2 (centres undefined)
inactive: dose: 25.0 mg/kg/injection, schedule: Q01DX001 (ip), vehicle: saline 93 % of control | dose: 25.0 mg/kg/injection, schedule: Q04DX003 (ip), vehicle: saline 95 % of control | dose: 25.0 mg/kg/injection, schedule: Q04DX003 (oral), vehicle: saline 100 % of control | [1] 104 % of control | dose: 50.0 mg/kg/injection, schedule: Q04DX003 (ip), vehicle: saline 95 % of control | dose: 50.0 mg/kg/injection, schedule: Q04DX003 (oral), vehicle: saline 98 % of control | [2] 97 % of control | [3] 97 % of control | dose: 100.0 mg/kg/injection, schedule: Q04DX003 (oral), vehicle: saline 96 % of control | [4] 103 % of control | [5] 97 % of control | dose: 200.0 mg/kg/injection, schedule: Q04DX003 (oral), vehicle: saline 107 % of control

C1=CC2CC1C1CSCC21 (centres undefined)
inactive: dose: 0.34 mg/kg/injection, schedule: Q01DX009 (ip), vehicle: saline 102 % of control | dose: 0.51 mg/kg/injection, schedule: Q01DX009 (ip), vehicle: saline 107 % of control | dose: 0.78 mg/kg/injection, schedule: Q01DX009 (ip), vehicle: saline 98 % of control | dose: 1.56 mg/kg/injection, schedule: Q04DX003 (ip), vehicle: saline 97 % of control | dose: 3.12 mg/kg/injection, schedule: Q04DX003 (ip), vehicle: saline 94 % of control

O=S(=O)(O)C1(O)CCCCC1
inactive: dose: 50.0 mg/kg/injection, schedule: Q01DX009 (ip), vehicle: saline 99 % of control | [6] 93 % of control | [3] 102 % of control | [7] 103 % of control | [5] 100 % of control | [8] 113 % of control | dose: 400.0 mg/kg/injection, schedule: Q04DX003 (ip), vehicle: saline 96 % of control

CC(COC(=O)c1ccccc1)NC1CCCC1 (centres undefined)
inactive: [9] 96 % of control | dose: 150.0 mg/kg/injection, schedule: Q01DX001 (ip), vehicle: other 108 % of control | dose: 300.0 mg/kg/injection, schedule: Q01DX001 (ip), vehicle: other 107 % of control

COc1cc(/C=N/NC(=O)c2cccnc2)cc(OC)c1OC
inactive: [6] 102 % of control | [7] 107 % of control | [8] 103 % of control

CCOC(=O)c1cnc(SC)nc1NNc1nc(SC)ncc1C(=O)OCC
inactive: [10] 93 % of control | [11] 90 % of control | [12] 93 % of control

O=C1CNc2ccccc2N1
inactive: [10] 103 % of control | [11] 92 % of control | [12] 92 % of control

CC1(COC(=O)Nc2cccc3ccccc23)CC2C=CC1C2 (centres undefined)
inactive: dose: 75.0 mg/kg/injection, schedule: Q01DX001 (ip), vehicle: saline with Tween-80 96 % of control | dose: 150.0 mg/kg/injection, schedule: Q01DX001 (ip), vehicle: saline with Tween-80 91 % of control | dose: 300.0 mg/kg/injection, schedule: Q01DX001 (ip), vehicle: saline with Tween-80 88 % of control

NSc1ccccc1[N+](=O)[O-]
inactive: [10] 100 % of control | [11] 105 % of control | [12] 100 % of control

CCCCOC(=O)c1ccc(OC(=O)Nc2ccc(C)cc2[N+](=O)[O-])cc1
inactive: dose: 50.0 mg/kg/injection, schedule: Q01DX009 (ip), vehicle: saline + alcohol 97 % of control | dose: 100.0 mg/kg/injection, schedule: Q01DX009 (ip), vehicle: saline + alcohol 123 % of control | dose: 200.0 mg/kg/injection, schedule: Q01DX009 (ip), vehicle: saline + alcohol 103 % of control

NC(Cc1ccc(N(CCCl)Cc2ccccc2)cc1)C(=O)O (centres undefined)
inactive: dose: 3.12 mg/kg/injection, schedule: Q01DX009 (ip), vehicle: distilled water + Tween-80 97 % of control | dose: 6.25 mg/kg/injection, schedule: Q01DX009 (ip), vehicle: distilled water + Tween-80 107 % of control | dose: 12.5 mg/kg/injection, schedule: Q01DX009 (ip), vehicle: distilled water + Tween-80 96 % of control | dose: 25.0 mg/kg/injection, schedule: Q01DX009 (ip), vehicle: distilled water + Tween-80 113 % of control | dose: 100.0 mg/kg/injection, schedule: Q01DX009 (ip), vehicle: distilled water + Tween-80 97 % of control

CCN(CC)C(=O)/C=C/c1ccccc1
inactive: [1] 102 % of control | [2] 96 % of control | [4] 96 % of control

C=C1C(=O)N(C)C(C(=O)OC)CC1(O)C(CC)C(=O)OC (centres undefined)
inactive: dose: 18.7 mg/kg/injection, schedule: Q01DX001 (ip), vehicle: saline 94 % of control | dose: 37.5 mg/kg/injection, schedule: Q01DX001 (ip), vehicle: saline 98 % of control | [13] 117 % of control | [14] 102 % of control

O=c1[nH]c2ccccc2[nH]1
inactive: dose: 12.5 mg/kg/injection, schedule: Q04DX002 (ip), vehicle: Klucel (hydroxypropylcellulose) (HPC) 90 % of control | dose: 25.0 mg/kg/injection, schedule: Q04DX002 (ip), vehicle: Klucel (hydroxypropylcellulose) (HPC) 87 % of control | dose: 50.0 mg/kg/injection, schedule: Q01DX009 (ip), vehicle: Klucel (hydroxypropylcellulose) (HPC) 95 % of control | dose: 50.0 mg/kg/injection, schedule: Q04DX002 (ip), vehicle: Klucel (hydroxypropylcellulose) (HPC) 90 % of control | dose: 75.0 mg/kg/injection, schedule: Q01DX009 (ip), vehicle: Klucel (hydroxypropylcellulose) (HPC) 94 % of control | dose: 115.0 mg/kg/injection, schedule: Q01DX009 (ip), vehicle: Klucel (hydroxypropylcellulose) (HPC) 97 % of control | dose: 170.0 mg/kg/injection, schedule: Q01DX009 (ip), vehicle: Klucel (hydroxypropylcellulose) (HPC) 89 % of control

c1ccc2c3c([nH]c2c1)C1CC2CCCCC2CN1CC3 (centres undefined)
inactive: [13] 107 % of control | [14] 109 % of control

CC(=O)C1(C)OC(c2ccc(F)cc2)=NC1=O (centres undefined)
inactive: [2] 102 % of control | [4] 102 % of control | dose: 400.0 mg/kg/injection, schedule: Q01DX001 (ip), vehicle: saline 98 % of control

Nc1c[nH]c(=S)s1
inactive: dose: 100.0 mg/kg/injection, schedule: Q01DX001 (ip), vehicle: Klucel (hydroxypropylcellulose) (HPC) 94 % of control | dose: 200.0 mg/kg/injection, schedule: Q01DX001 (ip), vehicle: Klucel (hydroxypropylcellulose) (HPC) 99 % of control

COc1ccc2cnnc(NN)c2c1
inactive: [9] 97 % of control

O=C(O)c1cc2ccccc2[nH]1
inactive: dose: 100.0 mg/kg/injection, schedule: Q04DX003 (ip), vehicle: saline with Tween-80 95 % of control | dose: 200.0 mg/kg/injection, schedule: Q04DX003 (ip), vehicle: saline with Tween-80 95 % of control | dose: 400.0 mg/kg/injection, schedule: Q04DX003 (ip), vehicle: saline with Tween-80 90 % of control

CC(=O)Nc1ccc(NC(=O)Nc2cc([N+](=O)[O-])ccc2C)cc1
inactive: [15] 95 % of control | [16] 93 % of control | [17] 96 % of control

Cc1ccc(C2OC2(C(=O)c2ccccc2)c2ccccc2)cc1 (centres undefined)
inactive: [15] 106 % of control | [10] 96 % of control | [16] 108 % of control | [11] 104 % of control | [17] 92 % of control | [12] 98 % of control
